Values belong to the compound of their own block, whether it stands above or below them.
How the values were obtained:
[1] = system: mouse scalp; assay: In vivo optical clearing of mouse scalp by topical gel, laser speckle imaging of cerebral vessels; set-up: species or system mice; conditions: gel containing 0.62 M dye, 785 nm
Text: Given the successful clearing of scattering phantoms and chicken breasts using this approach, the possibility to achieve clearing in live animals was next explored. Procedures were developed to circumvent the destructive procedures or the use of toxic chemicals commonly used in ex vivo tissue clearing methods. […] It was hypothesized that owing to the small molecular weight and sufficiently large diffusion coefficient of Dye-4 in tissue, it can be delivered topically to optically clear the skin, thus exposing underlying structures that are otherwise obscured by the skin (FIG. 7A). […] The opacity of the scalp always requires its removal for fluorescence imaging of neuron activity or laser speckle imaging of cerebral hemodynamics in the mouse brain. […]
(§1) Before each imaging experiment, the mice were weighed and anesthetized via intraperitoneal (i.p.) injection of a mixture of 16 mg/kg ketamine (Dechra Veterinary Products) and 0.2 mg/kg dexdomitor (Dexmedesed; Dechra Veterinary Products) by insulin syringes with a 30 G needle gauge. […] The hair over the mouse head was removed for the in-vivo fluorescence imaging at the mice head. The hair over the mouse hindlimbs was removed for in-vivo reflectance and fluorescence imaging at the hind limbs. […]

[2] = system: chicken breast tissue; assay: Temporal evolution of transmittance during immersion, diffusion in chicken breast tissue
Text: (FIG. 19A) Temporal evolution of transmittance T at different wavelengths of a chicken breast tissue immersed in a 0.62 M solution of Dye-4. (FIG. 19B) Temporal evolution of normalized T at different wavelengths. T is normalized between 0 and 1 against minimum and maximum T for each wavelength. (FIG. 19C) Temporal evolution of normalized T averaged over measurements at all wavelengths in FIG. 19B, enabling the extraction of the diffusion constant by fitting the normalized T to
This tissue sample has a thickness of d=1.82 mm; therefore, the diffusion coefficient D of Dye-4 therein can be calculated as
For this reason, estimates of the diffusion rate of Dye-4 molecules can be made in chicken breast by tracking the temporal evolution of T during dye immersion (FIGS. 6F and 19A-19C). […] Using a dilute solution to achieve the same Δn′ and clearing effect benefits from a low viscosity of the clearing agent, thus promoting its diffusion kinetics.
For transmission measurements of chicken breast tissue, the tissue sample was first mounted on a microscope slide (precleaned, 12-550-15, Fisher Scientific), which was placed in the light path of the UV-Vis spectrometer to ensure that the entire incident beam is blocked by the tissue. For time-dependent transmission measurement, the tissue was cut to fit into a 1 cm optical path plastic cuvette (acrylic, 14-955-126, Fisher Scientific) while having sufficient area to completely block the incident light. 3 mL of Dye-4 solution was then slowly added to fully immerse the chicken breast tissue, before the cuvette was sealed by parafilm (Bemis Company, Inc., Neenah, Wisconsin, USA) to minimize water evaporation. The temperature of the cuvette was controlled between 25 and 30° C. during measurements.
The thickness of the tissue was measured by sandwiching the tissue between two coverslips (22×22×0.15 mm, Thermal Scientific) using a digital caliper (Mitutoyo). The transmission spectra of the tissue were measured by attaching the chicken breast tissue on a microscope slide (precleaned, Fisher Scientific).

[3] = UV-Vis absorption of dye solutions in water (molar absorption α, extinction coefficient); type: physicochemical; conditions: for absorption at wavelengths above 600 nm: aqueous solutions, b66: 1 mM to 1.0 M
Text: A Thermo Fisher Scientific Evolution 350 UV-Vis spectrophotometer was used to measure the transmission and absorption spectra of dye solutions, silica phantoms, and ex-vivo chicken breast tissues. For all the measurements, 0.2 s acquisition time was used for each wavelength.
For transmission measurements of dye solutions, 1 mm optical path quartz cuvettes (high precision, two polished sides, Orient Analytics) were used and the cells were washed with aqua regia (mixture of 36.5-38.0 w/w % HCl and 68.0-70.0 w/w % HNO3 with a volume ratio of 3:1), fully rinsed with water and dried before use. A reference spectrum was acquired with water alone, thus correcting any loss of light due to intrinsic water absorption and reflection at the air-quartz interfaces.

[4] = system: mouse hindlimb skin; assay: In vivo optical clearing of mouse hindlimb skin by topical gel, SHG sarcomere imaging; set-up: species or system mice; conditions: gel containing 0.62 M dye topically
Text: Sarcomeres, basic contractile units of skeletal and cardiac muscles, were chosen as the targets for imaging owing to their central roles in muscle functions and implications in neuromuscular diseases (e.g., spinal muscular atrophy). Existing in vivo sarcomere imaging methods require the invasive implantation of microendoscopes inside the muscle tissue for imaging the second-harmonic generation (SHG) signals from myosin rods in the sarcomere. It was hypothesized that the need for an invasively implanted microendoscope can be alleviated by applying the K-Klear method to reduce the scattering in the skin. […] This average periodicity value between SHG-generating myosin rods agrees with the reported sarcomere lengths measured via an implanted microendoscope, thus confirming the ability of K-Klear to resolve microscopic features through cleared tissue. […]
as §1

[5] = Screening of absorbing molecules for K-Klear by α, β and β/α spectra; type: physicochemical
Text: (FIG. 3A) The relation between average molar absorption a and average molar n′ change β in the wavelength range between 500 to 700 nm for different molecules. (FIG. 3B) The ratio between the molar n′ change and molar absorption (β/α) for different absorbing molecules. The “white window” indicates a potential clearing spectrum with sufficient Δn′ and minimal absorption. (FIGS. 3C-3D) Imaginary part n″ (FIG. 3C) and real part n′ (FIG. 3D) of the RI of Dye-4 solutions at different concentrations measured from ellipsometry.
In practice, the agent should display a large absorption coefficient in order to realize the large, required changes in n′. […] At the same time, the agent should have minimal absorption at the wavelength for imaging, thus calling for a single narrow absorption peak without any additional absorption at longer wavelengths. In addition to these purely optical requirements, the agents also need to display a high solubility and diffusivity in water as well as excellent biocompatibility to facilitate in vivo application.

[6] = Imaging of 1951 USAF resolution target through 1-mm scattering phantoms; conditions: optimum K-Klear conditions
Procedure: To this end, the resolvable spatial frequencies of a 1951 US Air Force (USAF) resolution target were quantified when imaging it through 1-mm scattering phantoms with different Dye-4 concentrations (FIGS. 5A-5B; FIGS. 14A-15E; see Example 7 for preparation of the phantom). The scattering phantom is placed between the objective lens and the USAF target, which is back illuminated with a white lamp (FIG. 16).
The hydrogel-silica scatter phantom in FIGS. 5A-5M was prepared by mixing the silica nanoparticle suspension (1 μm, 10 mg mL^−1) with low melting temperature agarose and Dye-4 of different amounts. The final concentration of agarose was 6 mg mL^−1. […] The mixture was then heated in an oven at 70° C. for at least 10 min to facilitate the dissolution of agarose. A 400-μL suspension was pipetted and injected into the well of a 1-mm silicone isolator (Grace bio-labs, Bend, Oregon, USA) mounted on a coverslip (24×40×0.15 mm, Fisher Scientific). The top of the solution was then sealed by another coverslip (22×22×0.15 mm, Thermo Scientific, Waltham, Massachusetts, USA) and the phantom was left at room temperature for slow solidification. […]

[7] = system: chicken breast tissue; assay: Ex vivo K-Klear of chicken breast tissue, transmittance and attenuation coefficient; conditions: immersion in 0.62 M solution, beyond 600 nm
Text: To gradually increase the n′ of the aqueous components in chicken breast, the tissue slices were sequentially immersed in solutions containing an increasing concentration of Dye-4 (FIG. 6A; see Example 7).
To verify this point, the Dye-4 concentration was varied in the last immersion step and measure T before and after dye immersion (FIGS. 6C and 18).
For transmission measurements of chicken breast tissue, the tissue sample was first mounted on a microscope slide (precleaned, 12-550-15, Fisher Scientific), which was placed in the light path of the UV-Vis spectrometer to ensure that the entire incident beam is blocked by the tissue. For time-dependent transmission measurement, the tissue was cut to fit into a 1 cm optical path plastic cuvette (acrylic, 14-955-126, Fisher Scientific) while having sufficient area to completely block the incident light. 3 mL of Dye-4 solution was then slowly added to fully immerse the chicken breast tissue, before the cuvette was sealed by parafilm (Bemis Company, Inc., Neenah, Wisconsin, USA) to minimize water evaporation. […]
The thickness of the tissue was measured by sandwiching the tissue between two coverslips (22×22×0.15 mm, Thermal Scientific) using a digital caliper (Mitutoyo). The transmission spectra of the tissue were measured by attaching the chicken breast tissue on a microscope slide (precleaned, Fisher Scientific). […]

[8] = EFSA conclusion; cited from earlier work
[9] = Ellipsometry measurement of solution refractive index and molar n′ change β; type: physicochemical
Procedure: A Horiba UVISEL ellipsometer was used to measure the real and imaginary parts of the refractive index of solutions at different concentrations of specific dye molecules. For solution measurement, 5 mL of solution was added to a shallow glass petri-dish (35×10 mm, Corning Falcon). The solution covers the entire bottom of the petri-dish creating a flat, reflective air-liquid interface. The reflected light was measured at an angle of 69.85° and the refractive index of the solution was calculated using a single interface semi-infinite reflection model. For all the measurements, 0.2 s integration time was used for each wavelength.
Measurements of the Molar n′ Change, β
The molar n′ change, β, is defined and measured according to the following quantitative relationship between the n′ and c (i.e., the concentration) of an aqueous solution containing dissolved clearing agents:
[formula] • where nw′ is the real RI of pure water, c is the molar concentration (M) of the clearing agent, and β is its molar n′ change. Note that n′, nw′, and β all have wavelength dependence. According to eq. (6), by measuring the n′(λ) of the solutions with ellipsometry, one can obtain β(λ) by fitting n′(λ) with c to a linear relationship.

[10] = when used as a clearing agent, reported; cited from earlier work
[11] = wavelength 600 nm, aqueous solution

Structure (SMILES): [Cl-].[Na+] [Sodium chloride, reference compound]
- Molar n′ change β ([9]; wavelength 589 nm): 0.00094 M⁻¹

Structure (SMILES): CC1(C)C(/C=C/C2=C(Cl)C(=C/C=C3\N(CCCCS(=O)(=O)[O-])c4ccccc4C3(C)C)/CCC2)=[N+](CCCCS(=O)(=O)[O-])c2ccccc21.[Na+] [Dye-21, Sodium 4-[2-[2-[2-chloro-3-[2-[3,3-dimethyl-1-(4-sulfonato-butyl)indol-1-ium-2-yl]vinyl]cyclohex-2-en-1-ylidene]ethylidene]-3,3-dimethyl-indolin-1-yl]butane-1-sulfonate]
- potential for clearing from β/α spectrum ([5]; longer wavelengths / NIR spectrum): greatest potential

Structure (SMILES): Cc1cc(=O)n(-c2ccccc2)n1C [Antipyrine, reference compound]
- Molar n′ change β [9, 11]: 0.037 ± 0.003 M⁻¹

Continued, in another order:

- diffusion coefficient ([2]; in chicken breast tissue, clearing solution): 0.66×10^−6 cm^2 s^−1
- absorption at wavelengths above 600 nm [3]: minimally absorbing
- absorption at wavelengths above 600 nm ([3]; listed as tartrazine): do not absorb
- peak absorption wavelength ([3]; dissolved in water): 428 nm
- β among candidates while maintaining low α ([5]; visible spectrum of 500-700 nm, 21 candidates): highest
- β higher than that of molecules commonly used to raise the n′ of water [9]: 2-3 orders of magnitude
- efficiency in raising the n′ of water relative to glycerol on a per molar basis ([9]; at 600 nm): 11 ×
- n′ of solution reachable ([9]; at a soluble concentration, ellipsometry): up to 1.49
- Molar n′ change β ([9]; wavelength 500 nm, aqueous solution): 0.198 ± 0.005 M⁻¹
- Molar n′ change β [9, 11]: 0.143 ± 0.004 M⁻¹
- Molar n′ change β ([9]; wavelength 700 nm, aqueous solution): 0.128 ± 0.004 M⁻¹
- Molar n′ change β ([9]; wavelength 800 nm, aqueous solution): 0.130 ± 0.008 M⁻¹
Structure (SMILES): O=C([O-])c1nn(-c2ccc(S(=O)(=O)[O-])cc2)c(O)c1/N=N/c1ccc(S(=O)(=O)[O-])cc1.[Na+].[Na+].[Na+] [Dye-4, Trisodium 5-hydroxy-1-(4-sulfonato-phenyl)-4-[(E)-(4-sulfonato-phenyl)diazenyl]-1H-pyrazole-3-carboxylate]
- laser speckle image through intact scalp after topical application [1]: clearly reveals vascular structures representative of cerebral vessels
- time constant τ of normalized transmittance ([2]; 0.62 M solution, tissue thickness 1.82 mm): 85.0 ± 1.2 min
- time until transmission changes saturate ([2]; 2-mm-thick chicken breast, 0.62 M solution): 2 to 3 h
- characteristic periodicity (sarcomere length) identified through the skin window [4]: 2.60±0.28 μm
- depth at which sarcomere structures are identified through the skin ([4]; 1040 nm): > 200 μm
- resolvable spatial frequency through 1-mm scattering phantom [6]: up to 228.1 lp mm^−1
- normalized attenuation coefficient relative to original tissue [7]: approximately 40%
- dose with no adverse effects or systemic toxicity [8]: up to 2 g per kg of body weight

- molar absorption coefficient α [3]: 0.012 M⁻¹
- concentration needed to raise the baseline n′ of water to match that of lipids [9]: 11.6 M
- Molar n′ change β ([9]; in the visible spectrum): 0.0129 M⁻¹
- Molar n′ change β ([9]; wavelength 589.6 nm): 0.0129 M⁻¹
Structure (SMILES): OCC(O)CO [Glycerol, reference compound]

- Molar n′ change β ([9]; wavelength 589.6 nm): 0.0462 M⁻¹
Structure (SMILES): OC[C@H]1O[C@@](CO)(O[C@H]2O[C@H](CO)[C@@H](O)[C@H](O)[C@H]2O)[C@@H](O)[C@@H]1O [Sucrose, reference compound]
- required immersion time to achieve the same n′ increase ([2]; chicken breast): 24 h

- Molar n′ change β ([9]; wavelength 589.6 nm): 0.0084 M⁻¹
Structure (SMILES): CC(O)CO (stereo not shown) [Propylene glycol, reference compound]
- diffusion coefficient [10]: 0.021×10^−6 cm^2 s^−1
